Results from patent publication US8592421B2, “Cyclic bioisosters of purine system derivatives and a pharmaceutical composition based thereon” (priority 2003, dated 2013).

How the values were obtained:
[1] = system: thrombocytes; test: ADP-induced aggregation of thrombocytes in vitro (Born method, plasma enriched with thrombocytes); type: cell-based, rabbit; details: 3-minute incubation, ADP 10^−5 M
Procedure: The aggregation of thrombocytes was studied by the Born method based on determination of the changes in the optical density of plasma enriched with thrombocytes after its incubation with an aggregation inductor.
Adenozinediphosphoric acid (ADP) was selected as an aggregation inductor, which in fact is an aggregation generator. Use was made of a sample (registration number 885) of the Sigma Diagnostics Company (USA) in final concentration of 10^−5 M.
(§1) The experiments were carried out on male rabbits of the “Chinchilla” breed having a mass of 2.7±0.3 kg. 18-24 hours prior to the experiment they were deprived of feed while preserving free access to water.
(§2) To obtain plasma enriched with thrombocytes, blood was taken from a cut of a marginal vein of the rabbit ear, the sample was stabilized with 3.8% of sodium citrate solution in a ratio of 9:1 and centrifuged at 200 g (1000 rev/min) for 10 minutes. The top supernatant layer enriched with thrombocytes was transferred by an automatic dropper into a silicone test tube and kept at 37° C. The plasma enriched with thrombocytes contained, on the average, […]. If this content exceeded the specified 3×10^8 blood platelets in 1 liter, this sample was diluted to the necessary concentration with plasma deprived of thrombocytes, which was obtained by centrifuging blood at 650 g during 10 minutes.
(§3) The measurements of the optical density of the samples were made on two-channel aggregometer of the “Chronolog” Company (USA). A flask containing 490 mkl of plasma rich with thrombocytes was placed in a device, into which a magnetic agitator covered with Teflon was lowered. The index of maximum amplitude of aggregation (MA) in percent of a fall of the plasma optical density under effect of the aggregation inductor was recorded. The control index MA of plasma was compared with the MA of plasma incubated for 3 minutes with different concentrations of the compounds: from 10^−3 to 10^−7 in vitro experiments or with plasma obtained 15, 30, 60 and 120 minutes after intravenous administration of different doses of the compounds in vivo experiments.
(§4) The process of aggregation of thrombocytes was recorded with the help of a computer; on the monitor screen the there were depicted curves reflecting changes of the optical density of the plasma enriched which was taken as a standard 100% compared to the optical density of the non-thrombocyte plasma taken for 0% content of thrombocytes.
Under in vitro conditions a flask was filled with blood plasma enriched with thrombocytes, to which an aggregation inductor ADP was added at a concentration of 10^−5 M, incubated for 3 minutes, and then the compounds according to the invention were introduced directly into the flask. Their action by aggregation of thrombocytes was studied after 3-minute incubation in a wide range of concentrations from 10^−3 to 10^−7 M to minimum concentration of 10^−7M not inducing no effect of suppressing the aggregation.

[2] = system: thrombocytes; test: ADP-induced aggregation of thrombocytes after intravenous administration (in vivo); design: species or system rabbit
Procedure: as §1, §2, §3, §4
The antiaggregative capability of compounds 2, 15, 21, 37, according to the invention was tested in experiments in vivo. Introduced to the test animals intravenously were an aggregation inductor ADP at a concentration of 10^−5 M was and then the compounds according to the invention. The doses of the compounds were in a range from 15 to 60 mg/kg.
For leveling the different effects of the compounds in different days due the ambient temperature, humidity and other parameters, 2 animals of each series were taken for experiments every day. Under “series” there is understood a group of 6 animals used for studying one of the doses of the compounds.
The blood for obtaining plasma enriched with thrombocytes was taken from marginal vein of the rabbit ear: in the control group—directly before introducing the tested compounds; in investigated groups—15 minutes after introducing these compounds and then after 30, 60, 120 minutes and so on up to the moment when the effect of suppression of aggregation disappeared.
The quantity of thrombocytes was counted before the experiment and at the end thereof in each plasma sample.

Question: For `Nc1cnc2c(=O)n([C@@H]3O[C@H](CO)[C@@H](O)[C@H]3O)[nH]c(=O)c2n1.[Na]` [Compound 21, sodium salt of 3-amino-7-(β-D-ribofuranosile)pyrazine[2,3-d]-6H-pyridazine-5,8-dione], which “MA - fall of optical density of plasma, % to the standard” value (“MA - fall … % to the standard” below) ([1]; 10^−3 M, control 60.8 ± 3.4) is on record?
Answer: 47.1 ± 3.0 %

Question: And the “MA - fall … % to the standard” value ([1]; 10^−4 M, control 60.0 ± 2.1)?
Answer: 49.2 ± 2.1 %

Question: And the “MA - fall … % to the standard” value ([1]; 10^−5 M, control 52.5 ± 2.1)?
Answer: 41.8 ± 2.4 %

Question: What about the “MA - drop of optical density, %” value ([1]; 10^−6 M, control 52.8 ± 1.8) of the same compound?
Answer: 49.6 ± 1.7%

Question: What about the “MA - drop of optical density, %” value ([1]; 10^−7 M, control 51.5 ± 2.1) of the same compound?
Answer: 49.7 ± 2.1%

Question: What about the “MA - drop of optical density” value ([2]; 15.0 mg/kg intravenously, after 15 minutes, control 50.1 ± 1.7) of the same compound?
Answer: 43.5 ± 1.7 %

Question: What about the “MA - drop of optical density” value ([2]; 15.0 mg/kg intravenously, after 30 minutes, control 50.1 ± 1.7) of the same compound?
Answer: 43.3 ± 1.7 %

Question: And the “MA - drop of optical density” value ([2]; 15.0 mg/kg intravenously, after 60 minutes, control 50.1 ± 1.7)?
Answer: 46.7 ± 1.5 %

Question: And the “MA - drop of optical density” value ([2]; 15.0 mg/kg intravenously, after 120 minutes, control 50.1 ± 1.7)?
Answer: 49.1 ± 1.7%

Question: And the “MA - drop of optical density” value ([2]; 30.0 mg/kg intravenously, after 15 minutes, control 61.0 ± 1.3)?
Answer: 46.7 ± 1.9 %

Question: And the “MA - drop of optical density” value ([2]; 30.0 mg/kg intravenously, after 30 minutes, control 61.0 ± 1.3)?
Answer: 45.4 ± 1.8 %

Question: What about the “MA - drop of optical density” value ([2]; 30.0 mg/kg intravenously, after 60 minutes, control 61.0 ± 1.3) of the same compound?
Answer: 45.0 ± 1.9%

Question: What about the “MA - drop of optical density” value ([2]; 30.0 mg/kg intravenously, after 120 minutes, control 61.0 ± 1.3) of the same compound?
Answer: 60.3 ± 2.1%

Question: What about the “MA - drop of optical density” value ([2]; 60.0 mg/kg intravenously, after 15 minutes, control 48.6 ± 1.3) of the same compound?
Answer: 45.1 ± 0.9 %

Question: What about the “MA - drop of optical density” value ([2]; 60.0 mg/kg intravenously, after 30 minutes, control 48.6 ± 1.3) of the same compound?
Answer: 43.2 ± 2.0 %

Question: And the “MA - drop of optical density” value ([2]; 60.0 mg/kg intravenously, after 60 minutes, control 48.6 ± 1.3)?
Answer: 47.3 ± 1.6%

Question: And the “MA - drop of optical density” value ([2]; 60.0 mg/kg intravenously, after 120 minutes, control 48.6 ± 1.3)?
Answer: 48.3 ± 1.5%
